The target in experiment [1] is GST-fused human Keap1 (amino acid residues: 325-642) protein (Homo sapiens (Human), UniProt Q14145). The experiment can be described thus: FP assay (in vitro): inhibition of binding between Nrf2 and Keap1 by fluorescence polarization. Particulars: 20 nM GST-fused human Keap1, 10 nM FITC-labeled Nrf2 peptide, 2 hr at room temperature. On the procedure:
Experimental Example 1: FP Assay (In Vitro)
The inhibitory activity of test compounds on the binding between Nrf2 and Keap1 was determined by fluorescence polarization. A solution of 50 mM Tris-HCl pH.8.0 (NACALAI, REF: 06938-15), and 5 mM DTT (SIGMA-ALDRICH, REF: 646563-10X.5 mL) was used as a buffer solution. 8 μL of a buffer solution containing 40 nM GST-fused human Keap1 (amino acid residues: 325-642) protein (Protein tech, REF: Ag0779) was taken in a black 384-well plate (final concentration 20 nM), and 4 μL of the test compound solution prepared to each concentration in buffer solution was added thereto. A well containing a portion of the buffer solution without Keap1 was placed as a negative control. A well with no compound was used as a positive control. 40 nM of FITC-labeled Nrf2 peptide (FITC-X-LQLDEETGEFLPIQ (X=ε-Acp), Peptide Institute Inc.) was added thereto (10 nM final concentration). The wells were incubated at room temperature for 2 hr, and then fluorescence polarization was measured with a plate reader SPECTRAMAX Paradigm (Molecular devices) at excitation wavelength of 485 nm and fluorescence wavelength of 535 nm. The fluorescence polarization of the negative control was set to 100% inhibition and that of the positive control to 0% inhibition, and the inhibitory rate upon addition of the test compound was calculated using the following formula.
Background: In fluorescence polarisation assays a small probe gives low polarisation when free and higher when bound to something large.

The test system of experiment [2] is NQO1 activity in Hepa1c1c7 cells. The experiment can be described thus: NAD(P)H: quinone oxidoreductase-1 (NQO1) enzyme induction assay (in vitro). It counts as cell-based, mouse. Particulars: Mus musculus, Hepa-1c1c7, NQO1 activity upon addition of 400 nM of test compound, about 48 hr, ratio from the base without the compound. On the procedure: Experimental Example 2: NAD(P)H: Quinone Oxidoreductase-1 (NQO1) Enzyme Induction Assay (In Vitro)
The NQO1 assay was performed based on a previous report (Methods in Enzymology 2004; 382: 243-258). Hepa1c1c7 cells (mouse hepatocyte cell line, ATCC, cat. no. CRL-2026) were cultured in D-MEM medium containing 10% FBS and 1% penicillin/streptomycin (5% CO2, 37° C.), and seeded into 96-well plates (Corning REF. 353072) at 1×10^4 cells/well. A portion of the wells were prepared with medium only for background measurement without seeding cells. The next day, 400 nM of the test compound (0.004% of the final concentration in DMSO) dissolved in DMSO was added thereto, and the wells were incubated for about 48 hr. A well without adding the test compound was prepared for base activity assay in part.
Cell lysate (solution containing 0.8% digitonin, 2 mM EDTA), reaction solution (solution containing 25 mM Tris-HCl, 0.07% albumin, 0.01% Tween-20, 2 U/mL glucose-6-phosphate dehydrogenase, 5 μM flavin adenine dinucleotide, 1 μM glucose-6-phosphate, 30 μM nicotinamide adenine dinucleotide phosphate, 0.03% 3-(4,5-dimethyl-2-thiazolyl)-2,5-diphenyltetrazolium bromide (MTT), and 50 μM menadione), stop solution (solution containing 0.3 mM dicoumarol and 5 mM potassium dihydrogen phosphate, pH 7.4) were prepared. After the medium was removed, 50 μL of the cell lysate was added and incubated at 37° C. for 10 minutes, followed by shaking at room temperature for 10 minutes. 200 μL of reaction solution was added thereto, and allowed to stand for 5 minutes at room temperature. 50 μL of the stop solution was added thereto, and absorbance was measured at 610 nm on a SpectraMax PLUS384 (Molecular devices) or POWERSCAN HT (DS Pharma Biomedical). The test results were analyzed in Excel, and the NQO1 activity upon addition of 400 nM of test compound was calculated as a ratio from the base without the compound.
The results of each test compound in this test are shown in the following Table 2 (A: 5<NQO1 activity ratio, B: 3<NQO1 activity ratio 5, C: 1.5<NQO1 activity ratio 3).

Our source for the IC50 and fold induction values is US20250296939A1, “BENZOTHIOPHENE COMPOUND” (Kyoto Pharmaceutical Industries, Ltd., priority 2022, published 2025).

Each structure is given as a SMILES string. Bounds are passed on as bounds.

GST-fused human Keap1 (amino acid residues: 325-642) protein, sequence (Q14145 325-624 limits assumed): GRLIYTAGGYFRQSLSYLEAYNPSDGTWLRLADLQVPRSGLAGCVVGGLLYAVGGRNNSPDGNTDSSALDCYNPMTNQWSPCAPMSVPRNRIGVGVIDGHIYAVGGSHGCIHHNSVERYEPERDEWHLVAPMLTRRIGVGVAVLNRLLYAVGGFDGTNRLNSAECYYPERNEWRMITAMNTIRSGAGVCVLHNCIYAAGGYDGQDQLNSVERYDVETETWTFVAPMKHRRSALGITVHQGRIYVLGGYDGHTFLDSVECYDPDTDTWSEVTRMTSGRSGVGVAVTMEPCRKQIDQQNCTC

Usually IC50 stands for the concentration needed to halve the response being measured. What is called fold induction is the signal under treatment as a multiple of the control signal. For the molecule `Cc1c([C@H](CC(=O)O)c2cc(CN3Cc4nc(O)ccc4OC4(CC4)C3)c3sccc3c2)ccc2c1nnn2C` [Example 4, (3R)-3-(1,4-Dimethyl-1H-benzotriazol-5-yl)-3-{7-[(7′-hydroxy-3′H-spiro[cyclopropane-1,2′-pyrido[2,3-f][1,4]oxazepin]-4′ (5′H)-yl)methyl]-1-benzothiophen-5-yl}propanoic acid], in experiment [1], the IC50 was 0.01 to 0.03 µM. Besides, in experiment [2], the fold induction at 0.4 µM is over 5.
Consider `CC[C@H]1Cc2ccc(O)nc2CN(Cc2cc([C@@H](CC(=O)O)c3cc(C)c4c(nnn4C)c3C)cc3ccsc23)C1` [Example 87, (3R)-3-(7-{[(6S)-6-Ethyl-2-hydroxy-5,6,7,9-tetrahydro-8H-pyrido[2,3-c]azepin-8-yl]methyl}-1-benzothiophen-5-yl)-3-(1,4,7-trimethyl-1H-benzotriazol-5-yl)propanoic acid], for which the IC50 in experiment [1] is at most 0.01 µM. The fold induction at 0.4 µM in experiment [2] was over 5.
As for `CC[C@H]1Cc2ccc(O)nc2CN(Cc2cc([C@H](CC(=O)O)c3ccc4c(nnn4C)c3Cl)cc3ccsc23)C1` [Example 84, (3S)-3-(4-Chloro-1-methyl-1H-benzotriazol-5-yl)-3-(7-{[(6S)-6-ethyl-2-hydroxy-5,6,7,9-tetrahydro-8H-pyrido[2,3-c]azepin-8-yl]methyl}-1-benzothiophen-5-yl)propanoic acid], the 50% inhibitory concentration (IC50) in experiment [1] is at most 0.01 µM. Besides, the fold induction at 0.4 µM in experiment [2] is over 5.
As for `CC[C@@H]1CN(Cc2cc(C(CC(=O)O)c3ccc4c(nnn4CC)c3C)cc3ccsc23)Cc2nc(C)ccc2O1` (stereo partly drawn) [Example 92, 3-(1-Ethyl-4-methyl-1H-benzotriazol-5-yl)-3-(7-{[(2R)-2-ethyl-7-methyl-2,3-dihydropyrido[2,3-f][1,4]oxazepin-4(5H)-yl]methyl}-1-benzothiophen-5-yl)propanoic acid], the IC50 in experiment [1] lay in the range of 0.03 to 0.3 µM. Further, the fold induction at 0.4 µM in experiment [2] is over 5.
Taken in the same sequence, the figures for `Cc1c([C@H](CC(=O)O)c2cc(CN3Cc4nc(O)ccc4O[C@@H](C(F)(F)F)C3)c3sccc3c2)ccc2c1nnn2C` [Example 39, (3R)-3-(1,4-Dimethyl-1H-benzotriazol-5-yl)-3-(7-{[(2R)-7-hydroxy-2-(trifluoromethyl)-2,3-dihydropyrido[2,3-f][1,4]oxazepin-4(5H)-yl]methyl}-1-benzothiophen-5-yl)propanoic acid] were 0.3 to 3 µM and 1.5 to 3.
Taken in the same sequence, the figures for `CC[C@@H]1CN(Cc2cc([C@@H](CC(=O)O)c3ccc4c(nnn4C)c3C)cc3ccsc23)Cc2nc(N)ccc2O1` [Example 55, (3R)-3-(7-{[(2R)-7-Amino-2-ethyl-2,3-dihydropyrido[2,3-f][1,4]oxazepin-4(5H)-yl]methyl}-1-benzothiophen-5-yl)-3-(1,4-dimethyl-1H-benzotriazol-5-yl)propanoic acid] were at most 0.01 µM and over 5.
In the same order, the values of `Cc1c([C@H](CC(=O)O)c2cc(CN3Cc4nc(O)ccc4O[C@H](C(F)(F)F)C3)c3sccc3c2)cnc2c1nnn2C` [Example 46, (3R)-3-(3,7-Dimethyl-3H-[1,2,3]triazolo[4,5-b]pyridin-6-yl)-3-(7-{[(2S)-7-hydroxy-2-(trifluoromethyl)-2,3-dihydropyrido[2,3-f][1,4]oxazepin-4(5H)-yl]methyl}-1-benzothiophen-5-yl)propanoic acid] are at most 0.01 µM and 3 to 5.
As to `Cc1c([C@@H](CC(=O)O)c2cc(CN3Cc4nc(O)ccc4O[C@@H](C4CC4)C3)c3sccc3c2)ccc2c1nnn2C` [Example 7, (3S)-3-(7-{[(2S)-2-Cyclopropyl-7-hydroxy-2,3-dihydropyrido[2,3-f][1,4]oxazepin-4(5H)-yl]methyl}-1-benzothiophen-5-yl)-3-(1,4-dimethyl-1H-benzotriazol-5-yl)propanoic acid], the IC50 in experiment [1] was in the range of 0.03 to 0.3 µM. Besides, the fold induction at 0.4 µM in experiment [2] was over 5.
In the same order, the values of `CC[C@H]1Cc2cccnc2CN(Cc2cc([C@@H](CC(=O)O)c3cnc4c(nnn4C)c3C)cc3ccsc23)C1` [Example 75, (3R)-3-(3,7-Dimethyl-3H-[1,2,3]triazolo[4,5-b]pyridin-6-yl)-3-(7-{[(6S)-6-ethyl-5,6,7,9-tetrahydro-8H-pyrido[2,3-c]azepin-8-yl]methyl}-1-benzothiophen-5-yl)propanoic acid] are 0.01 to 0.03 µM and over 5.
Taken in the same sequence, the figures for `CC[C@@H]1CN(Cc2cc([C@@H](CC(=O)O)c3cc(C)c4c(nnn4C)c3C)cc3ccsc23)Cc2nc(O)ccc2O1` [Example 18, (3R)-3-(7-{[(2R)-2-Ethyl-7-hydroxy-2,3-dihydropyrido[2,3-f][1,4]oxazepin-4(5H)-yl]methyl}-1-benzothiophen-5-yl)-3-(1,4,7-trimethyl-1H-benzotriazol-5-yl)propanoic acid] were 0.03 to 0.3 µM and over 5.
Taken in the same sequence, the figures for `Cc1c([C@@H](CC(=O)O)c2cc(CN3Cc4c(ccnc4O)OC4(CC4)C3)c3sccc3c2)ccc2c1nnn2C` [Example 82, (3S)-3-(1,4-Dimethyl-1H-benzotriazol-5-yl)-3-{7-[(6′-hydroxy-3′H-spiro[cyclopropane-1,2′-pyrido[3,4-f][1,4]oxazepin]-4′(5′H)-yl)methyl]-1-benzothiophen-5-yl}propanoic acid] were 0.01 to 0.03 µM and 3 to 5.
For the molecule `Cc1c(C(CC(=O)O)c2cc(CN3Cc4nc(O)ccc4OC4(CC4)[C@@H]3C)c3sccc3c2)ccc2c1nnn2C` (single isomer, unassigned) [Example 60, (3R*)-3-(1,4-Dimethyl-1H-benzotriazol-5-yl)-3-(7-{[(3′S)-7′-hydroxy-3′-methyl-3′H-spiro[cyclopropane-1,2′-pyrido[2,3-f][1,4]oxazepin]-4′(5′H)-yl]methyl}-1-benzothiophen-5-yl)propanoic acid], the 50% inhibitory concentration (IC50) in experiment [1] is 0.03 to 0.3 µM. In addition, the fold induction at 0.4 µM in experiment [2] was over 5.
In the same order, the values of `CC[C@@H]1CN(Cc2cc([C@H](CC(=O)O)c3cc(OC(F)F)c4c(nnn4C)c3C)cc3ccsc23)Cc2nc(O)ccc2O1` [Example 44, (3S)-3-[7-(Difluoromethoxy)-1,4-dimethyl-1H-benzotriazol-5-yl]-3-(7-{[(2R)-2-ethyl-7-hydroxy-2,3-dihydropyrido[2,3-f][1,4]oxazepin-4(5H)-yl]methyl}-1-benzothiophen-5-yl)propanoic acid] are at most 0.01 µM and over 5.
Taken in the same sequence, the figures for `CC[C@@H]1CN(Cc2cc([C@@H](CC(=O)O)c3ccc4c(nnn4C)c3C)cc3ccsc23)Cc2nc(NC)ccc2O1` [Example 77, (3R)-3-(1,4-Dimethyl-1H-benzotriazol-5-yl)-3-(7-{[(2R)-2-ethyl-7-(methylamino)-2,3-dihydropyrido[2,3-f][1,4]oxazepin-4(5H)-yl]methyl}-1-benzothiophen-5-yl)propanoic acid] were at most 0.01 µM and over 5.
`CC[C@@H]1CN(Cc2cc([C@@H](CC(=O)O)c3cnc4c(nnn4C)c3C)cc3ccsc23)Cc2nc(O)ccc2O1` [Example 23, (3R)-3-(3,7-Dimethyl-3H-[1,2,3]triazolo[4,5-b]pyridin-6-yl)-3-(7-{[(2R)-2-ethyl-7-hydroxy-2,3-dihydropyrido[2,3-f][1,4]oxazepin-4(5H)-yl]methyl}-1-benzothiophen-5-yl)propanoic acid]: in experiment [1], the IC50 was 0.03 to 0.3 µM. In experiment [2], the fold induction at 0.4 µM fell in the range of 3 to 5.
